Measurements reported in patent US10377778B2, “Lead and thorium compounds” (Sciencons AS, priority 2017, dated 2019).

How the values were obtained:
C4-2 cells = experiment: Radiolytic stability: cell binding fraction after storage in ^224Ra solution; parameters: species or system human
Protocol: (§1) Initial activity in the solution was about 5 MBq/ml causing an absorbed radiation dose to the solution of about 1.8 Gy after 24 h and 3.3 Gy after 48 hours. The data (Table 2) indicate a slight decline at the longest exposure time but in general a relatively strong radiolytic resistance of the ligand was observed, which is compatible with centralized production and shipment to the end user ^224Ra-based generator solution with or without removal of ^224Ra prior to the administration of product.

[1] = Radiolytic stability: TLC measured RCP when kept in ^224Ra solution; assay type: physicochemical
Protocol: Thin layer chromatography (TLC) was performed using chromatography strips (model #150-772, Biodex Medical Systems Inc, Shirley, N.Y., USA). A formulation buffer (FB) consisting of 7.5% human serum albumin and 5 mM EDTA in DPBS and adjusted to approximately pH 7 with NaOH was mixed with the antibody conjugates in ratio 2:1 for at least 5 minutes before application to the strips to determine free radionuclide. A small beaker with about 0.5 ml of 0.9% NaCl was used to place strips with a sample spot in. To the strip was typically added 1-4 μl of sample at approximately 10% above the bottom of the strip. After the solvent front had moved to about 20% from the top of the strip, the strip was cut in half and each half was placed in a 5 ml test tube for counting. In this system radiolabeled ligand stays at the bottom half while radionuclide complexed with EDTA migrates to the upper half. It was verified that free cations of both ^212Pb and ^177Lu would complex with EDTA and moved to the top.
as §1

[2] = tested on: C4-2 PSMA-positive xenografts; experiment: Biodistribution of radiolabelled ligands (^224Ra/^212Pb solutions, ^177Lu) in nude mice with C4-2 xenografts
Protocol: Each group usually consisted of three mice. […] Approximately 16 kBq of ^224Ra/^212Pb was injected in each animal, i.e., approximately 0.2 nmol of ligand per mouse. Animals were given anaesthesia and sacrificed by cervical dislocation followed by dissection and harvesting of tissue-, blood- and urine samples. The samples were weighed and counted on a gamma counter.
Three mice in each group. […] The molar concentration was the same for both products, i.e., 12.5 nmol per MBq. Approximately 16 kBq of ^224Ra/^212Pb was injected in each animal, i.e., approximately 0.2 nmol of ligand per mouse. Animals were given anaesthesia and sacrificed by cervical dislocation followed by dissection and harvesting of tissue-, blood- and urine samples. The samples were weighed and counted on a gamma counter.
Methods: Tumor and kidney uptake of ^212Pb-labeled p-SCN-Bn-TCMC-PSMA ligand 1 and ^177Lu-labeled PSMA-617 was compared at 1 hours and 4 hours after administration of the products by intravenous injection into nude mice with C4-2 xenografts as described in Example 9.

[3] = 4 h after i.v. injection, ^224Ra/^212Pb solution

SMILES: NC(=O)CN1CCN(CC(N)=O)CCN(CC(N)=O)C(Cc2ccc(NC(=S)NCC3CCC(C(=O)NC(Cc4ccc5ccccc5c4)C(=O)NCCCCC(NC(=O)NC(CCC(=O)O)C(=O)O)C(=O)O)CC3)cc2)CN(CC(N)=O)CC1.[212Pb+2] (centres unmarked) [^212Pb-p-SCN-Bn-TCMC-PSMA ligand 1]
- Cell binding fraction (C4-2 cells; kept in ^224Ra solution 4 h): 52.3%
- Cell binding fraction (C4-2 cells; kept in ^224Ra solution 24 h (about 1.8 Gy)): 48.16%
- Cell binding fraction (C4-2 cells; kept in ^224Ra solution 48 h (about 3.3 Gy)): 37.18%
- TLC measured RCP ([1]; kept in ^224Ra solution 0.5 h): 93.81%
- TLC measured RCP ([1]; kept in ^224Ra solution 1 h): 92.84%
- TLC measured RCP ([1]; kept in ^224Ra solution 4 h): 94.75%
- TLC measured RCP ([1]; kept in ^224Ra solution 24 h): 94.85%
- TLC measured RCP ([1]; kept in ^224Ra solution 48 h): 94.85%
- Average tumor-to-kidney ratio ([2]; 1-hour point after administration): 0.40
- Tumor-to-kidney ratio ([2]; 4-hour timepoint): 1.7
- Uptake ratio to ^212Pb-PSMA-617, blood [2, 3]: 1.21
- Uptake ratio to ^212Pb-PSMA-617, kidneys [2, 3]: 0.20
- Uptake ratio to ^212Pb-PSMA-617, liver [2, 3]: 2.67
- Uptake ratio to ^212Pb-PSMA-617, spleen [2, 3]: 0.71
- Uptake ratio to ^212Pb-PSMA-617, tumor ([2]; 4 h after i.v. injection, ^224Ra/^212Pb solution, about 0.2 nmol ligand per mouse): 1.35
- Kidney uptake (average) ([2]; 4 hours after i.v. injection): 8.1 % ID/g
- Tumor uptake (average) ([2]; 4 hours after i.v. injection): 13.9 % ID/g
